Results published in PubChem BioAssay (NCI).
Several values for one entry are separate records, joined by “and”; a condition that tells them apart may be missing. Identical values can stand only once.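 96-well plates; 48 h exposure; 5 concentrations. Endpoints by linear interpolation between flanking doses. Not reached: highest tested concentration assigned. Here, GI50 denotes the concentration required for 50% inhibition of growth. TGI: total growth inhibition.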 Where a SMILES comes first, the peptide text is derived from it. The star is where a group is joined. Boc = CC(C)(C)OC(=O)*; nBu = CCCC*

Columns and labels:
Assay in all cases: inhibition of tumour cell growth, NCI panel, 48 h
[1] = system: K-562 leukemia
[2] = system: SNB-19 CNS
[3] = system: HOP-92 NSCLC
[4] = system: CCRF-CEM leukemia
[5] = system: CAKI-1 renal
[6] = system: SK-MEL-2 melanoma
[7] = system: SK-MEL-28 melanoma
[8] = system: BT-549 breast
[9] = system: SR leukemia
[10] = system: SK-OV-3 ovarian
[11] = system: LOX IMVI melanoma

`O=C(O)c1cc2ccccc2c(N=Nc2ccc(S(=O)(=O)Nc3ncccn3)cc2)c1O` gave a TGI [1] of over 100 µM, a TGI [2] of over 100 µM and a TGI [3] of over 100 µM. The TGI [4] was over 100 µM, the TGI [5] was over 100 µM and the TGI [6] was over 100 µM. It also gave a TGI [7] of over 100 µM, a TGI [8] of over 100 µM and a TGI [9] of over 100 µM. The TGI [10] was over 100 µM.

`C#C[C@]1(O)CC[C@H]2[C@@H]3CCc4cc(O)ccc4[C@H]3CC[C@@]21C` showed a TGI [2] of over 100 µM, a TGI [3] of 95 µM and a TGI [4] of over 100 µM. For the same compound, the TGI [5] was over 100 µM, the TGI [6] was 82.9 µM and the TGI [7] was over 100 µM. The TGI [11] was over 100 µM, the TGI [9] was over 100 µM and the TGI [10] was 79.7 µM.

With `CCOc1nc2c(N3CCCC3)nc(N3CCNCC3)nc2nc1NCc1ccccc1` the TGI [1] was 2.61 µM, the TGI [2] was 3.45 µM and the TGI [3] was 2.5 µM. The TGI [4] was 3.49 µM, the TGI [5] was 6.71 µM and the TGI [6] was 3.11 µM. The TGI [7] was 3.37 µM, the TGI [8] was 3.51 µM and the TGI [11] was 2.97 µM. The TGI [9] was 3.12 µM and the TGI [10] was 3.26 µM.

For `C/C(C=O)=C/[C@@]1(C)O[C@@H](C)[C@@](C)(O)[C@@H]1O`, the TGI [1] was over 100 µM, the TGI [2] was over 100 µM and the TGI [3] was over 100 µM. It also gave a TGI [4] of over 100 µM, a TGI [5] of 37.1 µM and a TGI [6] of over 100 µM. The TGI [7] was over 100 µM, the TGI [11] was over 100 µM and the TGI [9] was 7.12 µM. The TGI [10] was over 100 µM.

`CN1CCC(C(O)(c2ccccc2)c2ccc(Br)cc2)CC1` (configuration not stated) showed a TGI [1] of 35.9 µM, a TGI [2] of over 100 µM and a TGI [3] of 70.4 µM. The TGI [4] was over 100 µM, the TGI [5] was over 100 µM and the TGI [6] was 30.3 µM. The TGI [7] was 35.1 µM, the TGI [8] was over 100 µM and the TGI [11] was 32.9 µM. The TGI [9] was 47.6 µM and the TGI [10] was over 100 µM.

Compound `N#C/C(=C(/O)CCl)c1nc2ccccc2o1` has a TGI [1] of 9.36 µM, a TGI [2] of over 100 µM and a TGI [3] of 14.5 µM. For the same compound, the TGI [4] was 90.7 µM, the TGI [5] was 22.6 µM and the TGI [6] was 11.6 µM. It also gave a TGI [7] of 3.5 µM, a TGI [8] of 5.01 µM and a TGI [11] of 4.15 µM. It also gave a TGI [9] of 15 µM and a TGI [10] of 24.7 µM.

Compound `COc1ccc2nc3cc(Cl)ccc3c(NCCCN3CCN(CCCNc4ccc5nnn6c7ccccc7c(=O)c4c56)CC3)c2c1` has a TGI [1] of over 25 µM, a TGI [2] of over 25 µM and a TGI [3] of over 25 µM. It also gave a TGI [4] of over 25 µM, a TGI [5] of over 15.8 µM and a TGI [6] of over 25 µM. It also gave a TGI [7] of over 25 µM, a TGI [8] of over 14.8 µM and a TGI [11] of over 25 µM. For the same compound, the TGI [9] was over 25 µM and the TGI [10] was over 25 µM.

`Nc1nc(SCC(=O)c2ccc(Br)cc2)c2[nH]cnc2n1` gave a TGI [1] of over 100 µM, a TGI [2] of over 100 µM and a TGI [3] of 62.1 µM. The TGI [4] was 47.8 µM, the TGI [5] was over 100 µM and the TGI [6] was over 100 µM. It also gave a TGI [7] of over 100 µM, a TGI [8] of over 100 µM and a TGI [11] of over 100 µM. For the same compound, the TGI [9] was over 100 µM and the TGI [10] was over 100 µM.

In the case of `COc1ccc(CCn2cncn2)cc1`, the TGI [1] is reported as over 100 µM, the TGI [2] is reported as over 100 µM and the TGI [3] is reported as over 100 µM. For the same compound, the TGI [4] was over 100 µM, the TGI [7] was over 100 µM and the TGI [9] was over 100 µM. It also gave a TGI [10] of over 100 µM.

In the case of `CCCCCCCCCCCCCCCc1nc(=S)[nH][nH]1`, the TGI [1] is reported as over 100 µM, the TGI [2] is reported as over 100 µM and the TGI [4] is reported as over 100 µM. It also gave a TGI [6] of over 100 µM, a TGI [7] of over 100 µM and a TGI [11] of over 100 µM. The TGI [9] was over 100 µM and the TGI [10] was over 100 µM.

Compound `CCCCOc1ccc(CC(NC(=O)OC(C)(C)C)C(=O)NC(C)C(=O)NC(Cc2ccccc2)C(=O)NCC(N)=O)cc1` (configuration not stated) (Boc-Y(nBu)AFG-NH2; configuration not given here) has a TGI [1] of over 100 µM, a TGI [2] of over 100 µM and a TGI [3] of over 100 µM. For the same compound, the TGI [4] was over 100 µM, the TGI [5] was over 100 µM and the TGI [6] was 51 µM. It also gave a TGI [7] of over 100 µM, a TGI [8] of over 100 µM and a TGI [11] of over 100 µM. The TGI [10] was over 100 µM.

Compound `CC1(C)OC[C@@H]([C@@]2(COC(c3ccccc3)(c3ccccc3)c3ccccc3)CC=CC(=O)O2)O1` has a TGI [1] of over 100 µM, a TGI [2] of over 100 µM and a TGI [3] of 92.1 µM. For the same compound, the TGI [4] was 96.7 µM, the TGI [5] was over 100 µM and the TGI [6] was 31.1 µM. For the same compound, the TGI [7] was over 100 µM, the TGI [8] was 74.4 µM and the TGI [11] was over 100 µM. For the same compound, the TGI [9] was over 100 µM and the TGI [10] was over 100 µM.

`COc1cc(C2S/C(=C/c3ccccc3)C(=O)N2c2cccc(NC(C)=O)c2)cc(OC)c1OC` (configuration not stated) showed a TGI [1] of over 100 µM, a TGI [2] of over 100 µM and a TGI [3] of 85.7 µM. It also gave a TGI [4] of over 100 µM, a TGI [5] of over 100 µM and a TGI [7] of over 100 µM. The TGI [8] was over 100 µM, the TGI [11] was 54.7 µM and the TGI [9] was over 100 µM. The TGI [10] was over 100 µM.

Work on `O=[N+]([O-])c1ccc(N=Nc2c(O)[nH]c3ccccc23)c([N+](=O)[O-])c1` yielded a TGI [1] of over 100 µM, a TGI [2] of 51 µM and a TGI [3] of 12.5 µM. It also gave a TGI [4] of over 100 µM, a TGI [5] of 43.9 µM and a TGI [7] of over 100 µM. It also gave a TGI [8] of 34.1 µM, a TGI [11] of 20.7 µM and a TGI [9] of over 100 µM. It also gave a TGI [10] of 32.4 µM.

In the case of `COC(=O)c1c(O)ccc2c1c1c(n2Cc2cc(OC)cc(OC)c2)C(=O)c2ccccc2C1=O`, the TGI [1] is reported as over 100 µM, the TGI [2] is reported as over 100 µM and the TGI [3] is reported as 24.6 µM. It also gave a TGI [4] of 78.6 µM, a TGI [5] of 56.7 µM and a TGI [6] of 27.2 µM. For the same compound, the TGI [7] was 33 µM, the TGI [8] was 29 µM and the TGI [11] was 63.5 µM. It also gave a TGI [9] of over 100 µM and a TGI [10] of 37.5 µM.

For `CC(=O)c1ccc(Nc2c3ccccc3nc3occc23)cc1`, the TGI [1] was over 100 µM, the TGI [2] was over 100 µM and the TGI [3] was 83.5 µM. It also gave a TGI [4] of 4.46 µM, a TGI [5] of 4.68 µM and a TGI [6] of 0.0645 µM. For the same compound, the TGI [7] was 50 µM, the TGI [8] was over 100 µM and the TGI [11] was over 100 µM. The TGI [9] was 18.5 µM and the TGI [10] was 13.2 µM.

`O=c1c2cc(O)ccc2n2nnc3ccc(NCCNCCO)c1c32` was tested, and the GI50 [1] was 6.58 µM and 2.59 µM, the TGI [1] was > 62.8 µM and 14.7 µM and the TGI [2] was 39.4 µM and 29.1 µM. For the same compound, the TGI [3] was 16.5 µM and 12.9 µM, the GI50 [4] was 1.73 µM and 0.501 µM and the TGI [4] was > 36.6 µM and 10.6 µM. For the same compound, the TGI [5] was 43 µM and > 61.9 µM, the GI50 [6] was 9.4 µM and 4.34 µM and the TGI [6] was 23.5 µM and 13.5 µM. For the same compound, the GI50 [7] was 9.78 µM and 4.3 µM, the TGI [7] was 22.7 µM and 16.2 µM and the TGI [11] was 13.4 µM and 10.2 µM. The TGI [9] was 14.7 µM and 4.29 µM and the TGI [10] was > 100 µM and 37 µM.

With `CN(CCc1ccccn1)c1ccc2c(c1)C(=O)c1ccccc1-2` the TGI [1] was over 100 µM, the TGI [2] was over 100 µM and the TGI [3] was over 100 µM. It also gave a TGI [4] of over 100 µM, a TGI [5] of over 100 µM and a TGI [6] of over 100 µM. The TGI [7] was over 100 µM, the TGI [8] was over 100 µM and the TGI [11] was over 100 µM. It also gave a TGI [10] of over 100 µM.

Work on `CN(C)c1ccc(-c2ccc(-c3ccc(C(=N)N)cn3)o2)cc1` yielded a GI50 [2] of 1.87 µM, a TGI [2] of 3.64 µM and a GI50 [3] of 1.27 µM. It also gave a TGI [3] of 2.87 µM, a GI50 [4] of 1.8 µM and a TGI [4] of 4.36 µM. It also gave a GI50 [6] of 1.96 µM, a TGI [6] of 3.65 µM and a GI50 [7] of 1.76 µM. The TGI [7] was 3.36 µM, the GI50 [8] was 1.8 µM and the TGI [8] was 3.5 µM. It also gave a GI50 [9] of 0.378 µM, a TGI [9] of 2.01 µM and a GI50 [10] of 1.88 µM. For the same compound, the TGI [10] was 3.28 µM.

`COc1ccc(C2C3CCc4ccccc4C3=NN2S(=O)(=O)c2cccc(C(=O)O)c2OC)cc1` (configuration not stated) gave a TGI [1] of over 100 µM, a TGI [2] of over 100 µM and a TGI [3] of over 100 µM. The TGI [4] was 81.7 µM, the TGI [5] was over 100 µM and the TGI [6] was 60 µM. It also gave a TGI [8] of over 100 µM, a TGI [11] of over 100 µM and a TGI [9] of over 100 µM. The TGI [10] was 17.7 µM.
